These results are taken from ChEMBL document CHEMBL3046451, “Design, synthesis, characterization, and in vitro antimicrobial action of novel trisubstituted s-triazines” (2012).

What all share (assay type): functional
The subject of assay [1] is Salmonella typhi. In words: Antibacterial activity against Salmonella enterica subsp. enterica serovar Typhi MTCC 733 after 24 hr by agar streak dilution method. Conditions: MTCC 733, 24 h.
Assay [2] relates to Candida albicans. As to the kind of experiment: Antifungal activity against Candida albicans MTCC 183 after 48 hr by agar streak dilution method. Particulars: MTCC 183, 48 h.
In assay [3] the test system is Escherichia coli. As to the kind of experiment: Antibacterial activity against Escherichia coli MTCC 739 after 24 hr by agar streak dilution method. Particulars: MTCC 739, 24 h.
Assay [4] has as its system Aspergillus niger. As to the kind of experiment: Antifungal activity against Aspergillus niger MTCC 282 after 24 hr by paper disk diffusion method.
Assay [5] relates to Aspergillus niger. In words: Antifungal activity against Aspergillus niger MTCC 282 after 48 hr by agar streak dilution method. Particulars: MTCC 282, 48 h.
Assay [6] relates to Bacillus cereus. In words: Antibacterial activity against Bacillus cereus MTCC 619 after 24 hr by agar streak dilution method. Conditions: MTCC 619, 24 h.
Assay [7] has as its system Escherichia coli. As to the kind of experiment: Antibacterial activity against Escherichia coli MTCC 739 after 24 hr by paper disk diffusion method.
Assay [8] has as its system Proteus vulgaris. As to the kind of experiment: Antibacterial activity against Proteus vulgaris MTCC 1771 after 24 hr by agar streak dilution method. Conditions: MTCC 1771, 24 h.
The subject of assay [9] is Pseudomonas aeruginosa. In words: Antibacterial activity against Pseudomonas aeruginosa MTCC 741 after 24 hr by paper disk diffusion method.
The test system of assay [10] is Klebsiella pneumoniae. In words: Antibacterial activity against Klebsiella pneumoniae MTCC 109 after 24 hr by agar streak dilution method. Conditions: MTCC 109, 24 h.
The test system of assay [11] is Candida albicans. As to the kind of experiment: Antifungal activity against Candida albicans MTCC 183 after 24 hr by paper disk diffusion method.
Assay [12] concerns Proteus vulgaris. In words: Antibacterial activity against Proteus vulgaris MTCC 1771 after 24 hr by paper disk diffusion method.
Assay [13] has as its system Staphylococcus aureus. In words: Antibacterial activity against Staphylococcus aureus MTCC 96 after 24 hr by agar streak dilution method. Particulars: MTCC 96, 24 h.
For assay [14], the system named is Pseudomonas aeruginosa. As to the kind of experiment: Antibacterial activity against Pseudomonas aeruginosa MTCC 741 after 24 hr by agar streak dilution method. Conditions: MTCC 741, 24 h.
Assay [15] has as its system Bacillus cereus. In words: Antibacterial activity against Bacillus cereus MTCC 619 after 24 hr by paper disk diffusion method.
For assay [16], the system named is Shigella flexneri. As to the kind of experiment: Antibacterial activity against Shigella flexneri MTCC 1457 after 24 hr by agar streak dilution method. Particulars: MTCC 1457, 24 h.
In assay [17] the test system is Salmonella typhi. In words: Antibacterial activity against Salmonella enterica subsp. enterica serovar Typhi MTCC 733 after 24 hr by paper disk diffusion method.
Assay [18] concerns Shigella flexneri. As to the kind of experiment: Antibacterial activity against Shigella flexneri MTCC 1457 after 24 hr by paper disk diffusion method.
Assay [19] has as its system Staphylococcus aureus. In words: Antibacterial activity against Staphylococcus aureus MTCC 96 after 24 hr by paper disk diffusion method.

Structures are written as SMILES. Values after ≈ are worked out from the molar mass of the structure shown.

`Cn1c(=O)cc(Oc2nc(NCC(=O)O)nc(Nc3ccc(C#N)cc3)n2)c2ccccc21`: the MIC in assay [1] was 50 µg/mL (≈ 113 µM); in assay [2] it was over 50 µg/mL; in [3] it was 50 µg/mL (≈ 113 µM); in assay [5], 50 µg/mL (≈ 113 µM); in [6] it was 50 µg/mL (≈ 113 µM); in [8] it was 25 µg/mL (≈ 56.4 µM). Also, the minimum inhibitory concentration (MIC) in assay [10], in assay [13], in [14] and in [16] was 50 µg/mL (≈ 113 µM) in each case. For the same molecule, the “inhibition zone (IZ)” value in assay [4] is reported as 7 mm; in assay [7], under 5 mm; in assay [9] it was 8 mm; in assay [11] it was under 5 mm; in [12] it was 13 mm; in assay [15], 7 mm. For the same molecule, the “inhibition zone (IZ)” value in assay [17] is listed as 8 mm; in assay [18], 9 mm; in assay [19], under 5 mm.

Take `CCOC(=O)CNc1nc(Nc2ccc(C#N)cc2)nc(Oc2cc(=O)n(C)c3ccccc23)n1`: the MIC was 50 µg/mL (≈ 106 µM) in assay [1]; over 50 µg/mL in assay [2]; 50 µg/mL (≈ 106 µM) in assay [3]; 50 µg/mL (≈ 106 µM) in assay [5]; 50 µg/mL (≈ 106 µM) in assay [6]; 12.5 µg/mL (≈ 26.5 µM) in assay [8]. The minimal inhibitory concentration (MIC) in [10], in assay [13], in assay [14] and in assay [16] was 50 µg/mL (≈ 106 µM) in each case. Moreover, the “inhibition zone (IZ)” value in assay [4] was 9 mm; in assay [7], 7 mm; in [9], under 5 mm; in assay [11], under 5 mm; in assay [12], 15 mm; in [15] it was 9 mm. The “inhibition zone (IZ)” value is 8 mm in assay [17], 11 mm in assay [18] and 6 mm in assay [19].

Regarding `CC(C)Nc1nc(Nc2ccc(C#N)cc2)nc(Oc2cc(=O)n(C)c3ccccc23)n1`, the minimal inhibitory concentration (MIC) in assay [1] worked out at 50 µg/mL (≈ 117 µM); in assay [2], 50 µg/mL (≈ 117 µM); in assay [3] it was 50 µg/mL (≈ 117 µM); in assay [5], 50 µg/mL (≈ 117 µM); in [6], 25 µg/mL (≈ 58.5 µM); in [8], 50 µg/mL (≈ 117 µM). In addition, the minimum inhibitory concentration (MIC) in assay [10], in assay [13], in assay [14] and in assay [16] was 50 µg/mL (≈ 117 µM) throughout. For the same molecule, the “inhibition zone (IZ)” value is 8 mm in assay [4]; 9 mm in assay [7]; under 5 mm in assay [9]; 7 mm in assay [11]; 8 mm in assay [12]; 13 mm in assay [15]. In addition, the figures for the “inhibition zone (IZ)” value in assay [17], in assay [18] and in assay [19] were 6 mm, 8 mm and 8 mm, respectively.

As to `CCCCNc1nc(Nc2ccc(C#N)cc2)nc(Oc2cc(=O)n(C)c3ccccc23)n1`, the MIC in assay [1] was 50 µg/mL (≈ 113 µM); in assay [2], 50 µg/mL (≈ 113 µM); in [3] it was 50 µg/mL (≈ 113 µM); in assay [5] it was over 50 µg/mL; in assay [6] it was 50 µg/mL (≈ 113 µM); in assay [8], 50 µg/mL (≈ 113 µM). In addition, the minimum inhibitory concentration (MIC) in [10] worked out at 50 µg/mL (≈ 113 µM); in assay [13], 50 µg/mL (≈ 113 µM); in [14], 25 µg/mL (≈ 56.6 µM); in [16], 50 µg/mL (≈ 113 µM). Further, the “inhibition zone (IZ)” value is listed as under 5 mm in assay [4]; under 5 mm in [7]; 11 mm in assay [9]; 6 mm in assay [11]; under 5 mm in [12]; 8 mm in assay [15]. For the same molecule, the “inhibition zone (IZ)” value in [17] is on record as 6 mm; in assay [18], 7 mm; in assay [19], 12 mm.

Take `Cn1c(=O)cc(Oc2nc(NCCCl)nc(Nc3ccc(C#N)cc3)n2)c2ccccc21`: the MIC is 25 µg/mL (≈ 55.8 µM) in assay [1]; 50 µg/mL (≈ 112 µM) in [2]; 25 µg/mL (≈ 55.8 µM) in [3]; 50 µg/mL (≈ 112 µM) in assay [5]; 50 µg/mL (≈ 112 µM) in assay [6]; 50 µg/mL (≈ 112 µM) in [8]. Also, the MIC in assay [10] came out at 50 µg/mL (≈ 112 µM); in assay [13], 25 µg/mL (≈ 55.8 µM); in assay [14] it was 50 µg/mL (≈ 112 µM); in assay [16], 50 µg/mL (≈ 112 µM). The “inhibition zone (IZ)” value in [4] stood at 8 mm; in assay [7], 15 mm; in assay [9] it was 7 mm; in [11], 9 mm; in assay [12], 8 mm; in assay [15] it was 11 mm. Also, the “inhibition zone (IZ)” value in assay [17] is recorded as 13 mm; in [18], under 5 mm; in [19] it was 12 mm.

Regarding `Cn1c(=O)cc(Oc2nc(NCCO)nc(Nc3ccc(C#N)cc3)n2)c2ccccc21`, the minimal inhibitory concentration (MIC) is 50 µg/mL (≈ 116 µM) in assay [1]; over 50 µg/mL in assay [2]; 50 µg/mL (≈ 116 µM) in assay [3]; over 50 µg/mL in [5]; 50 µg/mL (≈ 116 µM) in [6]; 50 µg/mL (≈ 116 µM) in assay [8]. For the same molecule, the minimal inhibitory concentration (MIC) in assay [10], in assay [13], in [14] and in assay [16] was 50 µg/mL (≈ 116 µM) in each case. The “inhibition zone (IZ)” value in [4] is given as under 5 mm; in assay [7] it was under 5 mm; in assay [9], 9 mm; in assay [11], under 5 mm; in [12], 7 mm; in assay [15], under 5 mm. In addition, the “inhibition zone (IZ)” value was 9 mm in assay [17], 7 mm in assay [18] and under 5 mm in assay [19].

For `CNc1nc(Nc2ccc(C#N)cc2)nc(Oc2cc(=O)n(C)c3ccccc23)n1`, the MIC was 50 µg/mL (≈ 125 µM) in assay [1]; over 50 µg/mL in assay [2]; 50 µg/mL (≈ 125 µM) in assay [3]; over 50 µg/mL in assay [5]; 50 µg/mL (≈ 125 µM) in assay [6]; 50 µg/mL (≈ 125 µM) in [8]. Further, the MIC in [10] was 50 µg/mL (≈ 125 µM); in assay [13] it was 50 µg/mL (≈ 125 µM); in assay [14], 6.25 µg/mL (≈ 15.6 µM); in assay [16], 50 µg/mL (≈ 125 µM). The “inhibition zone (IZ)” value in assay [4] is reported as under 5 mm; in assay [7], under 5 mm; in assay [9] it was 14 mm; in [11], under 5 mm; in assay [12], 8 mm; in [15], 7 mm. For the same molecule, the “inhibition zone (IZ)” value is given as under 5 mm in assay [17], 8 mm in assay [18] and 11 mm in assay [19].

As for `CN(C)c1nc(Nc2ccc(C#N)cc2)nc(Oc2cc(=O)n(C)c3ccccc23)n1`, the MIC in assay [1] is 50 µg/mL (≈ 121 µM); in [2] it was over 50 µg/mL; in assay [3], 50 µg/mL (≈ 121 µM); in assay [5] it was over 50 µg/mL; in assay [6], 12.5 µg/mL (≈ 30.2 µM); in [8] it was 50 µg/mL (≈ 121 µM). Besides, the MIC in assay [10], in assay [13], in [14] and in assay [16] was 50 µg/mL (≈ 121 µM) each time. Moreover, the “inhibition zone (IZ)” value is reported as under 5 mm in [4]; 10 mm in [7]; 8 mm in assay [9]; under 5 mm in assay [11]; 9 mm in assay [12]; 14 mm in assay [15]. The results for the “inhibition zone (IZ)” value in assay [17], in assay [18] and in [19] were 7 mm, under 5 mm and 12 mm, respectively.

As to `CCNc1nc(Nc2ccc(C#N)cc2)nc(Oc2cc(=O)n(C)c3ccccc23)n1`, the MIC in assay [1] was 50 µg/mL (≈ 121 µM); in assay [2], over 50 µg/mL; in assay [3], 50 µg/mL (≈ 121 µM); in assay [5], over 50 µg/mL; in assay [6], 50 µg/mL (≈ 121 µM); in assay [8] it was 50 µg/mL (≈ 121 µM). Moreover, the MIC in [10] stood at 50 µg/mL (≈ 121 µM); in assay [13], 50 µg/mL (≈ 121 µM); in assay [14], 12.5 µg/mL (≈ 30.2 µM); in [16] it was 50 µg/mL (≈ 121 µM). Also, the “inhibition zone (IZ)” value was under 5 mm in [4]; 8 mm in [7]; 12 mm in assay [9]; under 5 mm in [11]; under 5 mm in assay [12]; under 5 mm in [15]. The figures for the “inhibition zone (IZ)” value in [17], in [18] and in assay [19] were 9 mm, 7 mm and 10 mm, respectively.

Regarding `CCN(CC)c1nc(Nc2ccc(C#N)cc2)nc(Oc2cc(=O)n(C)c3ccccc23)n1`, the minimum inhibitory concentration (MIC) in assay [1] amounted to 50 µg/mL (≈ 113 µM); in assay [2], 50 µg/mL (≈ 113 µM); in assay [3], 50 µg/mL (≈ 113 µM); in assay [5] it was 50 µg/mL (≈ 113 µM); in assay [6], 12.5 µg/mL (≈ 28.3 µM); in [8], 50 µg/mL (≈ 113 µM). The MIC in assay [10] came to 50 µg/mL (≈ 113 µM); in assay [13] it was 25 µg/mL (≈ 56.6 µM); in [14], 50 µg/mL (≈ 113 µM); in assay [16], 50 µg/mL (≈ 113 µM). Also, the “inhibition zone (IZ)” value in assay [4] is 9 mm; in assay [7], 11 mm; in assay [9], 10 mm; in assay [11] it was 9 mm; in assay [12] it was under 5 mm; in assay [15] it was 16 mm. For the same molecule, the “inhibition zone (IZ)” value in [17] is recorded as 10 mm; in assay [18], 10 mm; in assay [19], 13 mm.
